This is an account of results in patent US8193189B2, “Quinoxaline derivatives as tyrosine kinase activity inhibitors” (Novartis AG, priority 2007, dated 2012).

Each structure is given as a SMILES string.

One test concerns the target T1, GST-JAK1(866-1154) (Homo sapiens, UniProt P23458).
T1 construct: GST-JAK1(866-1154); made in house
Nature of the test: EPK JAK-family kinases profiling assay (Caliper mobility shift), JAK1. Format: biochemical. Conditions: ATP 40 μM, 50 nM kinase. The procedure, abridged: (§1)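 Turnover was read as substrate/product ratio after mobility-shift capillary-like separation of each reaction, run for 60 min at 30 °C with GST-tagged kinase domain, labelled peptide and ATP, and terminated with EDTA stop buffer.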

For a further test, the target named is T2, GST-JAK2(808-1132) (Homo sapiens, UniProt O60674).
T2 construct: GST-JAK2(808-1132); purchased Invitrogen (Carlsbad, USA) #4288
Nature of the test: EPK JAK-family kinases profiling assay (Caliper mobility shift), JAK2. Format: biochemical. Conditions: ATP 20 μM. Put shortly:
as §1

Another test concerns the target T3, GST-TYK2(888-1187) (Homo sapiens, UniProt P29597).
T3 construct: GST-TYK2(888-1187); made in house
T3 sequence (P29597 888-1187): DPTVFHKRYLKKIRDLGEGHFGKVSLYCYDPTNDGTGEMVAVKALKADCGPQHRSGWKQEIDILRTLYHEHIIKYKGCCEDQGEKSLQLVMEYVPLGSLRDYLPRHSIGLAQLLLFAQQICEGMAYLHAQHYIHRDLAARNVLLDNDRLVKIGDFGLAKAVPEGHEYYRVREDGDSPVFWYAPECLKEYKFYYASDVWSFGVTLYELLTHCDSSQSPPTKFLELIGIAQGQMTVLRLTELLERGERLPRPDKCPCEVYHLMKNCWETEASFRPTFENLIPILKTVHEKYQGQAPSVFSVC
Nature of the test: EPK JAK-family kinases profiling assay (Caliper mobility shift), TYK2. Format: biochemical. As to conditions: ATP 30 μM, 40 nM kinase. From the text:
All four kinases of the JAK-family kinases were used as purified recombinant GST-fusion proteins, containing the active kinase domains. GST-JAK1(866-1154), GST-JAK3(811-1124), and GST-TYK2(888-1187) were expressed and purified by affinity chromatography at the EPK biology unit. GST-JAK2(808-1132) was purchased from Invitrogen (Carlsbad, USA, #4288).
The kinase assays were based on the Caliper mobility shift assay using the LabChip 3000 systems. This technology is similar to capillary electrophoresis and uses charge driven separation of substrate and product in a microfluidic chip.
All kinase reactions were performed in 384 well microtiter plates in a total reaction volume of 18 μl. The assay plates were prepared with 0.1 μl per well of test compound in the appropriate test concentration, as described under the section “preparation of compound dilutions”. The reactions were started by combining 9 μl of substrate mix (consisting of peptide and ATP) with 9 μl of kinase dilution. The reactions were incubated for 60 minutes at 30° C. and stopped by adding 70 μl of stop buffer (100 mM Hepes, 5% DMSO, 0.1% Coating reagent, 10 mM EDTA, 0.015% Brij 35).
Fluorescently labeled synthetic peptides were used as substrates in all reactions. […] Specific assay conditions are described in Table 1:
The terminated reactions were transferred to the Caliper LabChip 3000 reader and the turnover of each reaction was measured by determining the substrate/product ratio.
Test compounds were dissolved in DMSO (10 mM) and transferred into 1.4 mL flat bottom or V-shaped Matrix tubes carrying a unique 2D matrix chip by individual compound hubs. The numbers of these chips were distinctively linked to the individual compound identification numbers. The stock solutions were stored at −20° C. if not used immediately. For the test procedure the vials were defrosted and identified by a scanner whereby a working sheet was generated that guided the subsequent working steps.
Compound dilutions were made in 96 well plates. This format enabled the assay of maximally 40 individual test compounds at 8 concentrations (single points) including 4 reference compounds. The dilution protocol included the production of pre-dilution plates, master plates and assay plates:
Pre-dilution plates: 96 polypropylene well plates were used as pre-dilution plates. A total of 4 pre-dilution plates were prepared including 10 test compounds each on the plate positions A1-A10, one standard compound at A11 and one DMSO control at A12. All dilution steps were done on a HamiltonSTAR robot.
Master plates: 100 μL of individual compound dilutions including standard compound and controls of the 4 “pre-dilution plates” were transferred into a 384 “master plate” including the following concentrations 1′820, 564, 182, 54.6, 18.2, 5.46, 1.82 and 0.546 μM, respectively in 90% of DMSO.
Assay plates: Identical assay plates were then prepared by pipetting 100 nL each of compound dilutions of the master plates into 384-well “assay plates”. […] The preparation of the master plates were handled by the Matrix PlateMate Plus robot and replication of assay plates by the HummingBird robot.

A further test deals with T4, GST-JAK3(811-1124) (Homo sapiens, UniProt P52333).
T4 construct: GST-JAK3(811-1124); made in house
Kind of test: EPK JAK-family kinases profiling assay (Caliper mobility shift), JAK3. As to conditions: ATP 80 μM, 6 nM kinase. Format: biochemical. The procedure, abridged:
as §1

Test [1] deals with JAK/STAT pathway (JAK1/JAK2-dependent nuclear translocation of STAT1-GFP). Kind of test: Inhibition of the JAK/STAT pathway: IFN-γ stimulated nuclear translocation of STAT1-GFP in HT1080 fibrosarcoma cells. Type of test: cell-based. Conditions: Homo sapiens, HT-1080; HT1080 STAT1-GFP cells, 100 ng/ml IFN-γ 2 hours, compound added 30 min before; read-out: STAT1translo IC50. The procedure, abridged: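 HT1080 cells stably expressing STAT1-GFP, compounds added 30 min before IFN-γ stimulation at final 10 μM down to 0.003 μM (0.1% DMSO). Nuclear-cytoplasmic GFP intensity differential quantified by automated imaging with Hoechst nuclear mask, ≥1000 cells per well, averaged per well.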

T2 sequence (O60674 808-1132): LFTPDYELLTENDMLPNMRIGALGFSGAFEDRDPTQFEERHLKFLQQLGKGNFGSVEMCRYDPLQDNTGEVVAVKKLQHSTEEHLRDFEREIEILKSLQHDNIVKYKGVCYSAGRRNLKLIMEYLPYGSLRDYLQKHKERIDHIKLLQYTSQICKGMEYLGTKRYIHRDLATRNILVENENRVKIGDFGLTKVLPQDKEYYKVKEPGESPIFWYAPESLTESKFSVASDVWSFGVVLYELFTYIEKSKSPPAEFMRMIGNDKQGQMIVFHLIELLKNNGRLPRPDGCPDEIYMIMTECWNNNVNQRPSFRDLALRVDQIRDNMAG
T1 sequence (P23458 866-1154): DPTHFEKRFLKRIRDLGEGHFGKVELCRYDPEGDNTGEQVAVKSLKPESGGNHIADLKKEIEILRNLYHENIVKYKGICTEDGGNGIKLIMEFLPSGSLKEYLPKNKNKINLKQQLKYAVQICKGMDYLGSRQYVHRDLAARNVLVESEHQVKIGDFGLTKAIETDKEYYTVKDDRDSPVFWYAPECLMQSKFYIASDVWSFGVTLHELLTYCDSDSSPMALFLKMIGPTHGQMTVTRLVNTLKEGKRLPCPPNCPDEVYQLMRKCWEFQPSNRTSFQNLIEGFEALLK
T4 sequence (P52333 811-1124): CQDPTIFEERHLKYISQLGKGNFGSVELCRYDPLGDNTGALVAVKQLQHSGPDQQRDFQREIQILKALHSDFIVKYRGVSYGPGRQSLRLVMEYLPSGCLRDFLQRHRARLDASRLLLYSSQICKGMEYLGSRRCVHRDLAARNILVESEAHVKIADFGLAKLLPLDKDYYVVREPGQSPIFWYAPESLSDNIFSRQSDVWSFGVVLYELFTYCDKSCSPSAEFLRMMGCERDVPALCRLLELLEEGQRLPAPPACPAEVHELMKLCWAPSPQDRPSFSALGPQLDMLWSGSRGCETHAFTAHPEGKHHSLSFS

For orientation: IC50 means the midpoint of a concentration-inhibition curve. Turning to `COc1cc(-c2cnc3cccc(-c4ccc(CC(=O)N5CCS(=O)(=O)CC5)cc4)c3n2)cc(OC)c1OC` [Example 13, 1-(1,1-Dioxido-thiomorpholin-4-yl)-2-{4-[3-(3,4,5-trimethoxy-phenyl)-quinoxalin-5-yl]-phenyl}-ethanone], the IC50 is 27 nM on GST-JAK1(866-1154), 5.1 nM at GST-JAK2(808-1132) ([…] kinase) and 235 nM at GST-TYK2(888-1187).

As for `CN1CCN(C(=O)c2cccc(-c3cnc4cccc(-c5cc(F)c(CN6CCS(=O)(=O)CC6)c(F)c5)c4n3)c2)CC1` [Example 166, (3-{8-[4-(1,1-Dioxido-thiomorpholin-4-ylmethyl)-3,5-difluoro-phenyl]-quinoxalin-2-yl}-phenyl)-(4-methyl-piperazin-1-yl)-methanone], the IC50 on GST-JAK1(866-1154) amounted to 70 nM; on GST-JAK2(808-1132) (1.8 nM kinase), 11 nM; on GST-TYK2(888-1187), 270 nM.

In the case of `CN1CCN(C(=O)c2cccc(-c3cnc4cccc(-c5cc(F)c(CN6CCOCC6)c(F)c5)c4n3)c2)CC1` [Example 164, {3-[8-(3,5-Difluoro-4-morpholin-4-ylmethyl-phenyl)-quinoxalin-2-yl]-phenyl}-(4-methyl-piperazin-1-yl)-methanone], the values for the IC50 at GST-JAK1(866-1154), at GST-JAK2(808-1132) (1.8 nM kinase) and at GST-TYK2(888-1187) were 300 nM, 50 nM and 2000 nM, respectively.

Turning to `CC(=O)N1CCC(n2cc(-c3cnc4cccc(-c5cc(F)c(CN6CCOCC6)c(F)c5)c4n3)cn2)CC1` [Example 121, 1-(4-{4-[8-(3,5-Difluoro-4-morpholin-4-ylmethyl-phenyl)-quinoxalin-2-yl]-pyrazol-1-yl}-piperidin-1-yl)-ethanone], the IC50 at GST-JAK1(866-1154) is 200 nM; on GST-JAK2(808-1132) (1.8 nM kinase), 3.8 nM; on GST-TYK2(888-1187), 230 nM.

`CN1CCN(C(=O)c2cc(-c3cnc4cccc(-c5cc(F)c(CN6CCS(=O)(=O)CC6)c(F)c5)c4n3)cn2C)CC1` [Example 168, (4-{8-[4-(1,1-Dioxido-thiomorpholin-4-ylmethyl)-3,5-difluoro-phenyl]-quinoxalin-2-yl}-1-methyl-1H-pyrrol-2-yl)-(4-methyl-piperazin-1-yl)-methanone]: the IC50 at GST-JAK1(866-1154) is 16 nM; at GST-JAK2(808-1132) (1.8 nM kinase), less than 3 nM; at GST-TYK2(888-1187) it was 30 nM.

`Cc1nn(C2CCNCC2)c(C)c1-c1cnc2cccc(-c3ccc(CN4CCS(=O)(=O)CC4)cc3)c2n1` [Example 157, 2-(3,5-Dimethyl-1-piperidin-4-yl-1H-pyrazol-4-yl)-8-[4-(1,1-dioxido-thiomorpholin-4-ylmethyl)-phenyl]-quinoxaline]: the results for the IC50 on GST-JAK1(866-1154), at GST-JAK2(808-1132) (1.8 nM kinase) and at GST-TYK2(888-1187) were 3600 nM, 140 nM and 6400 nM, respectively.

Consider `COc1ccc(-c2cnc3cccc(-c4cc(F)c(CN5CCOCC5)c(F)c4)c3n2)cc1N1CCN(C)CC1` [Example 162, 8-(3,5-Difluoro-4-morpholin-4-ylmethyl-phenyl)-2-[4-methoxy-3-(4-methyl-piperazin-1-yl)-phenyl]-quinoxaline], for which the IC50 at GST-JAK1(866-1154) is 69 nM; on GST-JAK2(808-1132) (1.8 nM kinase), 5.7 nM; at GST-TYK2(888-1187), 360 nM.

On to `CC(C)(O)C#Cc1cnc2cccc(-c3cc(F)c(CN4CCS(=O)(=O)CC4)c(F)c3)c2n1` [Example 171, 4-{8-[4-(1,1-Dioxido-thiomorpholin-4-ylmethyl)-3,5-difluoro-phenyl]-quinoxalin-2-yl}-2-methyl-but-3-yn-2-ol], for which the IC50 on GST-JAK1(866-1154) turned out to be 440 nM; at GST-JAK2(808-1132) (1.8 nM kinase) it was 70 nM; on GST-TYK2(888-1187), 2000 nM.

On to `Cc1cc(-c2cccc3ncc(-c4c(C)nn(C5CCNCC5)c4C)nc23)ccc1CN1CCOCC1` [Example 158, 2-(3,5-Dimethyl-1-piperidin-4-yl-1H-pyrazol-4-yl)-8-(3-methyl-4-morpholin-4-ylmethyl-phenyl)-quinoxaline], for which the half-maximal inhibitory concentration (IC50) on GST-JAK1(866-1154) was greater than 10000 nM; at GST-JAK2(808-1132) (1.8 nM kinase), 650 nM; on GST-TYK2(888-1187), greater than 10000 nM.

`COc1ccc(-c2cnc3cccc(-c4ccc(CN5CCS(=O)(=O)CC5)cc4)c3n2)cc1N1CCN(C)CC1` [Example 161, 8-[4-(1,1-Dioxido-thiomorpholin-4-ylmethyl)-phenyl]-2-[4-methoxy-3-(4-methyl-piperazin-1-yl)-phenyl]-quinoxaline]: the IC50 was 110 nM on GST-JAK1(866-1154), less than 3 nM on GST-JAK2(808-1132) (1.8 nM kinase) and 480 nM on GST-TYK2(888-1187).

Regarding `Cc1cc(-c2cccc3ncc(-c4ccc(C(=O)N5CCOCC5)c(C)c4)nc23)ccc1CN1CCS(=O)(=O)CC1` [Example 57, (4-{8-[4-(1,1-Dioxido-thiomorpholin-4-ylmethyl)-3-methyl-phenyl]-quinoxalin-2-yl}-2-methyl-phenyl)-morpholin-4-yl-methanone], the half-inhibitory concentration (IC50) is 80 nM at GST-JAK1(866-1154), less than 3 nM on GST-JAK2(808-1132) (1.8 nM kinase), 170 nM at GST-JAK3(811-1124) and 163 nM in test [1].

`Cc1cc(-c2cnc3cccc(-c4ccc(CN5CCOCC5)c(F)c4)c3n2)ccc1C(=O)N1CCCC1` [Example 65, {4-[8-(3-Fluoro-4-morpholin-4-ylmethyl-phenyl)-quinoxalin-2-yl]-2-methyl-phenyl}-pyrrolidin-1-yl-methanone]: the IC50 on GST-JAK1(866-1154) worked out at 240 nM; on GST-JAK2(808-1132) (1.8 nM kinase), 15.5 nM; on GST-JAK3(811-1124) it was 860 nM; in test [1], 2180 nM.

`Cc1cc(-c2cnc3cccc(-c4ccc(CC(=O)N5CCOCC5)c(F)c4)c3n2)ccc1OCCCN1CCOCC1` [Example 76, 2-(2-Fluoro-4-{3-[3-methyl-4-(3-morpholin-4-yl-propoxy)-phenyl]-quinoxalin-5-yl}-phenyl)-1-morpholin-4-yl-ethanone]: the IC50 worked out at 690 nM at GST-JAK1(866-1154), 59.5 nM at GST-JAK2(808-1132) (1.8 nM kinase), 4100 nM at GST-JAK3(811-1124) and 5990 nM in test [1].

Take `O=C(Cc1ccc(-c2cccc3ncc(-c4ccc(OCCCN5CCOCC5)cc4)nc23)cc1)N1CCOCC1` [Example 74, 1-Morpholin-4-yl-2-(4-{3-[4-(3-morpholin-4-yl-propoxy)-phenyl]-quinoxalin-5-yl}-phenyl)-ethanone]: the IC50 at GST-JAK1(866-1154) was determined as 310 nM; at GST-JAK2(808-1132) (1.8 nM kinase) it was 25 nM; on GST-JAK3(811-1124), 1300 nM; in test [1], 2610 nM.

As for `CCN1CCN(C(=O)c2ccc(-c3cnc4cccc(-c5ccc(C(C)(C)N6CCOCC6)c(C)c5)c4n3)cc2C)CC1` [Example 80, (4-Ethyl-piperazin-1-yl)-(2-methyl-4-{8-[3-methyl-4-(1-methyl-1-morpholin-4-yl-ethyl)-phenyl]-quinoxalin-2-yl}-phenyl)-methanone], the IC50 on GST-JAK1(866-1154) stood at 3800 nM; on GST-JAK2(808-1132) (1.8 nM kinase) it was 75 nM; at GST-JAK3(811-1124), 4550 nM; in test [1], 1550 nM.
